How the values were obtained:
Ustilago maydis (USTIMA) = assay: microbe, parasite or virus in culture; type: cell-based; settings: Mycosarcoma maydis, read-out: T12 USTIMA in vitro Growth Inhibition
[1] = tested on: Erysiphe graminis (ERYSGT); assay: Powdery Mildew of Wheat, whole plant 24 Hour Protectant (T1); settings: Blumeria graminis, in Triticum aestivum, read-out: T1 ERYSGT in vivo 1 Day Protectant, control of fungal infection
Description: Compound formulation was accomplished by dissolving technical materials in acetone, with serial dilutions then made in acetone to obtain desired concentrations. Final treatment volumes were obtained by adding 9 volumes 0.01% Triton X-100.
Powdery Mildew of Wheat (Erysiphe graminis—ERYSGT) (24 Hour Protectant): Wheat (cultivar Monon) was grown in a soilless peat-based potting mixture (“Metromix”) and mineral soil (50/50 mix) until the seedlings were 10-20 cm tall. These plants were then sprayed to run-off with the test compound at a rate of 100 ppm. After 24 hours the test plants were inoculated by dusting with conidia from powdery mildew infected wheat plants. The plants were then transferred to the greenhouse until disease developed on the untreated control plants.

[2] = tested on: Rhizoctonia solani (RHIZSO); assay: microbe, parasite or virus in culture; type: cell-based; settings: read-out: T10 RHIZSO in vitro Growth Inhibition
[3] = tested on: Magnaporthe grisea (Pyricularia oryzae, PYRIOR); assay: microbe, parasite or virus in culture; type: cell-based; settings: read-out: T9 PYRIOR in vitro Growth Inhibition
[4] = tested on: Mycosphaerella graminicola (Septoria tritici, SEPTTR); assay: microbe, parasite or virus in culture; type: cell-based; settings: Zymoseptoria tritici, read-out: T11 SEPTTR in vitro Growth Inhibition
[5] = tested on: Stagonospora nodorum (Leptosphaeria nodorum, LEPTNO); assay: microbe, parasite or virus in culture; type: cell-based; settings: Parastagonospora nodorum, read-out: T7 LEPTNO in vitro Growth Inhibition
[6] = tested on: Phytophthora infestans (PHYTIN); assay: whole plant or invertebrate; settings: in Solanum lycopersicum, 24 h, read-out: T3 PHYTIN in vivo 1 Day Protectant, control of fungal infection
[7] = tested on: Puccinia recondita (PUCCRT); assay: Brown Rust of Wheat, whole plant 24 Hour Protectant (T5); settings: wheat (cultivar Yuma), sprayed at 100 ppm, inoculated after 24 hours, read-out: T5 PUCCRT in vivo 1 Day Protectant, control of fungal infection
[8] = tested on: Leptosphaeria nodorum (LEPTNO); assay: Glume Blotch of Wheat, whole plant 24 Hour Protectant (T2); settings: Parastagonospora nodorum; wheat (cultivar Yuma), sprayed at 100 ppm, inoculated after 24 hours; read-out: T2 LEPTNO in vivo 1 Day Protectant, control of fungal infection
[9] = tested on: Phytophthora infestans (PHYTIN); assay: microbe, parasite or virus in culture; type: cell-based; settings: in Secale cereale, read-out: T8 PHYTIN in vitro Growth Inhibition
[10] = tested on: Septoria tritici (SEPTTR); assay: Leaf Blotch of Wheat, whole plant 24 Hour Protectant (T6); settings: Zymoseptoria tritici; wheat (cultivar Monon), sprayed at 100 ppm, inoculated after 24 hours; read-out: T6 SEPTTR in vivo 1 Day Protectant, control of fungal infection

| Structure (SMILES) | inhibition at 25 ppm (Ustilago maydis (USTIMA)) [%] | pest or weed control at 100 ppm [1] [%] | inhibition at 25 ppm [2] [%] | inhibition at 25 ppm [3] [%] | inhibition at 25 ppm [4] [%] | inhibition at 25 ppm [5] [%] | pest or weed control at 100 ppm [6] [%] | pest or weed control at 100 ppm [7] [%] | pest or weed control at 100 ppm [8] [%] | melting point [°C] | inhibition at 25 ppm [9] [%] | pest or weed control at 100 ppm [10] [%] |
| --- | --- | --- | --- | --- | --- | --- | --- | --- | --- | --- | --- | --- |
| COCOc1c(OC)ccnc1C(=O)N[C@H]1COC(=O)[C@H](Cc2ccccc2)[C@@H](OC(=O)C(C)C)[C@H](C)OC1=O [Compound 4] | < 80 | 25 to 74 | < 80 | > 80 | < 80 | > 80 | < 25 | 75 to 100 | 75 to 100 | 146 to 147 | < 80 |  |
| COc1ccnc(C(=O)N[C@H]2COC(=O)[C@H](Cc3ccccc3)[C@@H](OC(=O)C(C)C)[C@H](C)OC2=O)c1OCOCc1ccccc1 [Compound 10] | < 80 | < 25 | < 80 | < 80 | > 80 | > 80 | < 25 | 75 to 100 | 75 to 100 | 56 to 60 | > 80 |  |
| COc1ccnc(C(=O)N[C@H]2COC(=O)[C@H](Cc3ccccc3)[C@@H](OC(=O)C(C)C)[C@H](C)OC2=O)c1OCSC [Compound 18] | < 80 | < 25 | > 80 | > 80 | > 80 | > 80 | < 25 | 75 to 100 | 75 to 100 | 146 to 148 | < 80 |  |
| COc1ccnc(C(=O)N[C@H]2COC(=O)[C@H](Cc3ccccc3)[C@@H](OC(=O)C(C)C)[C@H](C)OC2=O)c1OCSc1ccccc1 [Compound 19] | < 80 | < 25 | > 80 | > 80 | > 80 | > 80 | < 25 | 75 to 100 | 75 to 100 | 133 to 135 | < 80 |  |
| CCCO[C@H]1[C@H](C)OC(=O)[C@@H](NC(=O)c2nccc(OC)c2OCOC(C)=O)COC(=O)[C@@H]1Cc1ccccc1 [Compound 51] | < 80 | 75 to 100 | > 80 | > 80 | > 80 | > 80 | < 25 | 75 to 100 | 75 to 100 | 65 to 120 | < 80 |  |
| CCOCC(=O)OCOc1c(OC)ccnc1C(=O)N[C@H]1COC(=O)[C@H](Cc2ccccc2)[C@@H](OCC(C)C)[C@H](C)OC1=O [Compound 59] | > 80 | 75 to 100 | < 80 | > 80 | > 80 | > 80 | < 25 | 75 to 100 | 75 to 100 |  | > 80 | 75 to 100 |
| CCCO[C@H]1[C@H](C)OC(=O)[C@@H](NC(=O)c2nccc(OC)c2OCOC(=O)COCC)COC(=O)[C@@H]1Cc1ccccc1 [Compound 60] | > 80 | 75 to 100 | < 80 | > 80 | > 80 | > 80 | < 25 | 75 to 100 | 75 to 100 |  | > 80 | 75 to 100 |
| COc1ccnc(C(=O)N[C@H]2COC(=O)[C@H](Cc3ccccc3)[C@@H](OCC(C)C)[C@H](C)OC2=O)c1OCOC(=O)C1CCCC1 [Compound 61] | > 80 | 75 to 100 | < 80 | > 80 | > 80 | > 80 | < 25 | 75 to 100 | 75 to 100 |  | < 80 | 75 to 100 |
| CCCO[C@H]1[C@H](C)OC(=O)[C@@H](NC(=O)c2nccc(OC)c2OCOC(=O)C2CCCC2)COC(=O)[C@@H]1Cc1ccccc1 [Compound 62] | > 80 | 75 to 100 | < 80 | < 80 | > 80 | > 80 | < 25 | 75 to 100 | 75 to 100 |  | < 80 | 75 to 100 |
| CCCC(=O)OCOc1c(OC)ccnc1C(=O)N[C@H]1COC(=O)[C@H](Cc2ccccc2)[C@@H](OCC(C)C)[C@H](C)OC1=O [Compound 63] | < 80 | 75 to 100 | < 80 | > 80 | > 80 | > 80 | < 25 | 75 to 100 | 75 to 100 |  | < 80 | 75 to 100 |
| CCCO[C@H]1[C@H](C)OC(=O)[C@@H](NC(=O)c2nccc(OC)c2OCOC(=O)CCC)COC(=O)[C@@H]1Cc1ccccc1 [Compound 64] | < 80 | 75 to 100 | < 80 | > 80 | > 80 | > 80 | < 25 | 75 to 100 | 75 to 100 |  | < 80 | 75 to 100 |
| CCOCC(=O)OCOc1c(OC)ccnc1C(=O)N[C@H]1COC(=O)[C@H](Cc2ccccc2)[C@@H](OCSC)[C@H](C)OC1=O [Compound 72] | > 80 | 25 to 74 | < 80 | > 80 | > 80 | > 80 | < 25 | 75 to 100 | 75 to 100 |  | < 80 | 25 to 74 |
| COc1ccnc(C(=O)N[C@H]2COC(=O)[C@H](Cc3ccccc3)[C@@H](OCSC)[C@H](C)OC2=O)c1OCOC(=O)C1CCCC1 [Compound 73] | > 80 | 25 to 74 | < 80 | > 80 | > 80 | > 80 | < 25 | 75 to 100 | 75 to 100 |  | < 80 | 75 to 100 |
| COCCOCC(=O)OCOc1c(OC)ccnc1C(=O)N[C@H]1COC(=O)[C@H](Cc2ccccc2)[C@@H](OCSC)[C@H](C)OC1=O [Compound 74] | > 80 | 25 to 74 | < 80 | > 80 | > 80 | > 80 | < 25 | 75 to 100 | 75 to 100 |  | < 80 | 25 to 74 |
